Source: patent publication US5523308A, “Peptidyl heterocycles useful in the treatment of thrombin related disorders” (priority 1995, dated 1996)

Assays:
[1] = target: T1, human alpha-thrombin (Homo sapiens, UniProt P00734); test: Thrombin-catalyzed hydrolysis of chromogenic substrate Spectozyme TH (in vitro enzyme assay); format: biochemical; conditions: 1 nM thrombin, 37° C., pH 7.4; for IC50: 50 μM Spectozyme TH, read-out: Thr IC50; for Ki: 5-100 μM Spectozyme TH, read-out: Thr Ki (listed in place of the IC50)
T1 construct: commercial human alpha-thrombin (American Diagnostica); purchased American Diagnostica
Procedure: Thrombin-catalyzed hydrolysis rates were measured spectrophotometrically using commercial human alpha-thrombin (American Diagnostica), a chromogenic substrate (Spectozyme® TH (H-D-HHT-Ala-Arg-pNA.2AcOH), American Diagnostica) in aqueous buffer (10 mM Tris, 10 mM Hepes, 150 mM NaCl, 0.1% PEG; pH 7.4), and a microplate reader (Molecular Devices). Changes in absorbance at 405 nm were monitored (Softmax, Molecular Devices), upon addition of enzyme, both with and without inhibitor present at 37° C. over 30 minutes. […] Michaelis-Menton kinetics were applied to the initial reaction slopes. […] Michaelis-Menton kinetics were applied to the initial reaction slopes using the program K.Cat (Bio Metallics Inc.).

[2] = target: T2, Bovine type 1 trypsin (Bos taurus, UniProt P00760); test: Trypsin-catalyzed hydrolysis of chromogenic substrate Spectrozyme TRY (in vitro enzyme assay); format: biochemical; conditions: 3.2 U/ml trypsin, 0.1-0.3 mM Spectrozyme TRY; for IC50: read-out: Trp IC50; for Ki: read-out: Trp Ki (listed in place of the IC50)
T2 construct: purchased Sigma
T2 sequence (P00760 24-246): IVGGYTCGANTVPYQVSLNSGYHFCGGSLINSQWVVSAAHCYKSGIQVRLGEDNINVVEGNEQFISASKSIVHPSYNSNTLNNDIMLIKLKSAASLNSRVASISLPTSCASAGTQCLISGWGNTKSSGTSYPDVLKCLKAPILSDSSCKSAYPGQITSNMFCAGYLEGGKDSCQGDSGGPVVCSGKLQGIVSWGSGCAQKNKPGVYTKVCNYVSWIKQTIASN
Procedure: The compounds of the invention were tested for their ability to inhibit thrombin mediated hydrolysis. An in vitro enzyme assay was performed as well as an ex vivo assay. In addition, the compounds were tested in vitro for their ability to inhibit trypsin, as an indication of their selectivity.
Trypsin-catalyzed hydrolysis rates were measured using the same method as the thrombin procedure.
The compound numbers in the table correspond to the examples described hereinafter.

[3] = rat, in vivo, iv
Procedure: An ex vivo assay was conducted to determine the duration of action of the compounds of Formula I. For this i.v. assay male rats (Long Evans, 350-500 g) were implanted with a teflon cannulae via the femoral artery while under anesthesia (pentobarbital i.p., 35 mg/kg). […] The animals were allowed to recover for at least 24 h after the surgical procedure.
The test compound was dispersed in water and delivered to the animal (0.25 mL) via the femoral vein. […] A plasma sample was obtained by centrifuging the blood at 10,000 rpm for 5 min. This sample is analyzed for thrombin inhibition using the chromogenic assay, described below.
Datum was collected over a 30 min period and the initial rate of substrate hydrolysis (V0 (mOD/min)) was calculated with an analysis program (Softmax, Molecular Devices).
The time to half plasma elimination (t 1/2) was calculated from the slope of Vo vs. time, using the following equation: t 1/2=-1.6 slope.

Compound	IC50 [1]	IC50 [2]	also measured
CN[C@H](Cc1ccccc1)C(=O)N1CCC[C@H]1C(=O)N[C@@H](Cc1ccc(C(=N)N)cc1)C(=O)c1nc2ccccc2s1 [Compound 57]	19600 nM	182 nM	
CN[C@H](Cc1ccccc1)C(=O)N1CCC[C@H]1C(=O)N[C@@H](CCCNC(=N)N)C(=O)c1nc2ccc(OC)cc2s1 [Compound 50, N-METHYL-D-PHENYLALANYL-N-[4-[(AMINOIMINOMETHYL)AMINO]-1S-[(6-METHOXYBENXOT HIAZOL-2-YL)CARBONYL]BUTYL]-L-PROLINAMIDE]			Ki [2]: 2 nM
N=C(N)NCCC[C@H](NC(=O)[C@@H]1CCCN1)C(=O)c1nc2ccccc2s1 [Compound 48]		684 nM	
CN[C@H](Cc1ccccc1)C(=O)N1CCC[C@H]1C(=O)N[C@@H](CCCNC(=N)N)C(=O)c1nccn1C [Compound 22]	1520 nM	18400 nM	
CN[C@H](Cc1ccccc1)C(=O)N1CCC[C@H]1C(=O)N[C@@H](Cc1ccccc1)C(=O)c1nc2ccccc2s1 [Compound 38]	29900 nM	38700 nM	
CC1CNc2c(cccc2S(=O)(=O)N[C@@H](CCCNC(=N)N)C(=O)N2CC[C@@H](C)C[C@@H]2C(=O)O)C1 (stereo partly drawn) [Argatroban, reference compound]			Ki [2]: 2900 nM
CN[C@H](Cc1ccccc1)C(=O)N1CCC[C@H]1C(=O)N[C@H](CCCNC(=N)N)C(=O)c1nc2ccccc2s1 [Compound 2, N-METHYL-D-PHENYLALANYL-N-[4-[(AMINOIMINOMETHYL)AMINO]-1R-[(BENXOTHIAZOL-2- YL)CARBONYL]BUTYL]-L-PROLINAMIDE]			Ki [1]: 0.9 nM
CN[C@H](Cc1ccccc1)C(=O)N1CCC[C@H]1C(=O)N[C@H](CCCNC(=N)N)C(=O)c1nc2ccc(CO)cc2s1 [Compound 16, N-METHYL-D-PHENYLALANYL-N-[4-[(AMINOIMINOMETHYL)AMINO]-1R-[(6-HYDROXYMETHYL BENXOTHIAZOL-2-YL)CARBONYL]BUTYL]-L-PROLINAMIDE]		238 nM	
CN[C@H](Cc1ccccc1)C(=O)N1CCC[C@H]1C(=O)N[C@@H](CCCNC(=N)N)C(=O)c1nc2ccccc2c(=O)[nH]1 [Compound 24]	106 nM	14 nM	
CN[C@H](Cc1ccccc1)C(=O)N1CCC[C@H]1C(=O)N[C@@H](CCCNC(=N)N)C(=O)c1ccccn1 [Compound 23]	928 nM	238 nM	
CN[C@H](Cc1ccccc1)C(=O)N1CCC[C@H]1C(=O)N(C)[C@@H](CCCNC(=N)N)C(=O)c1nc2ccccc2s1 [Compound 40]	20500 nM	7010 nM	
CN(C)c1cccc2c(S(=O)(=O)N[C@@H](CCCNC(=N)N)C(=O)N3CCCCC3CCC(=O)c3nccs3)cccc12 (single isomer, unassigned) [Compound 27]			Ki [1]: 1200 nM; Ki [2]: 12000 nM
CN(C)c1cccc2c(S(=O)(=O)N[C@@H](CCCNC(=N)N)C(=O)N3CCCCC3CCC(=O)c3nccs3)cccc12 (single isomer, unassigned) [Compound 26]			Ki [1]: 38000 nM; Ki [2]: 180000 nM
CN[C@H](Cc1ccccc1)C(=O)N1CCC[C@H]1C(=O)N[C@H](C=O)CCCNC(=N)N [reference compound]			Ki [2]: 3.9 nM
CN[C@H](Cc1ccccc1)C(=O)N1CCC[C@H]1C(=O)N[C@@H](CCCCNC(=N)N)C(=O)c1nc2ccccc2s1 [Compound 11, N-METHYL-D-PHENYLALANYL-N-[5-[(AMINOIMINOMETHYL)AMINO]-1S-[(BENXOTHIAZOL-2- YL)CARBONYL]PENTYL]-L-PROLINAMIDE]			Ki [1]: 420 nM; Ki [2]: 6010 nM

Continued by falling IC50 [2], values first:

IC50 [1]	IC50 [2]	Compound	also measured
	130 nM	CN[C@H](Cc1ccccc1)C(=O)N1CCC[C@H]1C(=O)N[C@@H](CCCNC(=N)N)C(=O)c1nc2ccc(F)cc2s1 [Compound 18, N-METHYL-D-PHENYLALANYL-N-[4-[(AMINOIMINOMETHYL)AMINO]-1S-[(6-FLUOROBENXOTH IAZOL-2-YL)CARBONYL]BUTYL]-L-PROLINAMIDE]	
	80 nM	N=C(N)NCCC[C@H](NC(=O)C1CCCC1)C(=O)c1nc2ccccc2s1 [Compound 31]	
450 nM	58 nM	CCOC(=O)c1csc(C(=O)[C@H](CCCNC(=N)N)NC(=O)[C@@H]2CCCN2C(=O)[C@@H](Cc2ccccc2)NC)n1 [Compound 20, N-METHYL-D-PHENYLALANYL-N-[4-[(AMINOIMINOMETHYL)AMINO]-1S-[(4-ETHOXYCARBONY LTHIAZOL-2-YL)CARBONYL]BUTYL]-L-PROLINAMIDE]	
21000 nM	27.9 nM	CN[C@H](Cc1ccccc1)C(=O)N1CCC[C@H]1C(=O)N[C@H](CCCNC(=N)N)C(=O)c1nc(C(=O)NCCc2ccccc2)cs1 [Compound 56]	
371 nM	9 nM	CNC1(C(=O)N2CCC[C@H]2C(=O)N[C@@H](CCCNC(=N)N)C(=O)c2nc3ccccc3s2)CCCCC1 [Compound 45, 1-(N-METHYLAMINO)-1-CYCLOHEXYLCARBONYL-N-[4-[(AMINOIMINOMETHYL)AMINO]-1S-[( BENZOTHIAZOL-2-YL)CARBONYL]BUTYL]-L-PROLINAMIDE]	
830 nM	8.6 nM	CN[C@H](Cc1ccccc1)C(=O)N1CCC[C@H]1C(=O)N[C@@H](CCCNC(=N)N)C(=O)c1nc(C(=O)NCCc2ccccc2)cs1 [Compound 55]	
	5 nM	CN[C@H](Cc1ccccc1)C(=O)N1CCC[C@H]1C(=O)N[C@@H](CCCNC(=N)N)C(=O)c1nc2ccc3ccccc3c2s1 [Compound 52, N-METHYL-D-PHENYLALANYL-N-[4-[(AMINOIMINOMETHYL)AMINO]-1S-[(NAPTHO[2,1-D]TH IAZOL-2-YL)CARBONYL]BUTYL]-L-PROLINAMIDE]	t1/2 (time to half plasma elimination) [3]: 8 min
	4 nM	CN[C@H](Cc1ccccc1)C(=O)N1CCC[C@H]1C(=O)N[C@@H](CCCNC(=N)N)C(=O)c1nc2ccc(F)cc2s1 [Compound 17, N-METHYL-D-PHENYLALANYL-N-[4-[(AMINOIMINOMETHYL)AMINO]-1S-[(6-FLUOROBENXOTH IAZOL-2-YL)CARBONYL]BUTYL]-L-PROLINAMIDE]	t1/2 (time to half plasma elimination) [3]: 8 min
	4 nM	C[C@@](N)(Cc1ccccc1)C(=O)N1CCC[C@H]1C(=O)N[C@@H](CCCNC(=N)N)C(=O)c1nc2ccccc2s1 [Compound 47]	
	3 nM	CN[C@H](Cc1ccccc1)C(=O)N1CCC[C@H]1C(=O)N[C@@H](CCCNC(=N)N)C(=O)c1nc2ccc(CO)cc2s1 [Compound 15, N-METHYL-D-PHENYLALANYL-N-[4-[(AMINOIMINOMETHYL)AMINO]-1S-[(6-HYDROXYMETHYL BENXOTHIAZOL-2-YL)CARBONYL]BUTYL]-L-PROLINAMIDE]	t1/2 (time to half plasma elimination) [3]: 16 min
	3 nM	CN[C@H](Cc1ccccc1)C(=O)N1CCC[C@H]1C(=O)N[C@@H](CCCNC(=N)N)C(=O)c1nc2ccc(C(=O)OC)cc2s1 [Compound 12, N-METHYL-D-PHENYLALANYL-N-[4-[(AMINOIMINOMETHYL)AMINO]-2S-[(6-METHOXYCARBON YLBENXOTHIAZOL-2-YL)CARBONYL]BUTYL]-L-PROLINAMIDE]	t1/2 (time to half plasma elimination) [3]: 43 min
	3 nM	CN[C@H](Cc1ccccc1)C(=O)N1CCC[C@H]1C(=O)N[C@@H](CCCNC(=N)N)C(=O)c1nc2ccc(C(N)=O)cc2s1 [Compound 14, N-METHYL-D-PHENYLALANYL-N-[4-[(AMINOIMINOMETHYL)AMINO]-1S-[(6-CARBOXAMIDOBE NXOTHIAZOL-2-YL)CARBONYL]BUTYL]-L-PROLINAMIDE]	
15 nM	3 nM	N=C(N)NCCC[C@H](NC(=O)[C@@H]1CCCN1C(=O)C(N)(c1ccccc1)c1ccccc1)C(=O)c1nc2ccccc2s1 [Compound 46]	
	2 nM	CN[C@H](Cc1ccccc1)C(=O)N1CCCC[C@H]1C(=O)N[C@@H](CCCNC(=N)N)C(=O)c1nc2ccccc2s1 [Compound 42, N-METHYL-D-PHENYLALANYL-N-[4-[(AMINOIMINOMETHYL)AMINO]-1S-[(BENZOTHIAZOL-2- YL)CARBONYL]BUTYL]-2S-PIPERIDINECARBOXAMIDE]	
	2 nM	CN[C@H](Cc1ccccc1)C(=O)N1CCC[C@H]1C(=O)N[C@@H](CCCNC(=N)N)C(=O)c1nc2ccc(C(=O)O)cc2s1 [Compound 13, N-METHYL-D-PHENYLALANYL-N-[4-[(AMINOIMINOMETHYL)AMINO]-1S-[(6-CARBOXYBENXOT HIAZOL-2-YL)CARBONYL]BUTYL]-L-PROLINAMIDE]	t1/2 (time to half plasma elimination) [3]: 25 min
	2 nM	CN[C@H](CC1CCCCC1)C(=O)N1CCC[C@H]1C(=O)N[C@@H](CCCNC(=N)N)C(=O)c1nc2ccccc2s1 [Compound 29, N-METHYL-D-CYOLOHEXYLALANYL-N-[4-[(AMINOIMINOMETHYL)AMINO]-1S-[(BENXOTHIAZO L-2-YL)CARBONYL]BUTYL]-L-PROLINAMIDE]	t1/2 (time to half plasma elimination) [3]: 14 min
	1 nM	CN[C@@H](C(=O)N1CCC[C@H]1C(=O)N[C@@H](CCCNC(=N)N)C(=O)c1nc2ccccc2s1)C1CCCCC1 [Compound 37, N-METHYL-D-CYCLOHEXYLGLYCYL-N-[4-[(AMINOIMINOMETHYL)AMINO]-1S-[(BENXOTHIAZO L-2-YL)CARBONYL]BUTYL]-L-PROLINAMIDE]	t1/2 (time to half plasma elimination) [3]: 42 min
	1 nM	N=C(N)NCCC[C@H](NC(=O)[C@@H]1CCCN1C(=O)[C@H](N)Cc1ccccc1)C(=O)c1nc2ccccc2s1 [Compound 41, D-PHENYLALANYL-N-[4-[(AMINOIMINOMETHYL)AMINO]-1S-[(BENZOTHIAZOL-2-YL)CARBON YL]BUTYL]-L-PROLINAMIDE]	
